Earlier results as cited in US20090312688A1, “IONTOPHORESIS DRUG DELIVERY FORMULATION PROVIDING ACCEPTABLE SENSATION AND DERMAL ANESTHESIA” (Vyteris, Inc., priority 2005, published 2009).

Settings: iontophoresis in vitro across human skin

SMILES | cumulative delivery relative to lidocaine
CCCNC(C)C(=O)Nc1ccccc1C (stereo not drawn) [prilocaine] | slightly greater delivery
CCCN(CC)C(CC)C(=O)Nc1c(C)cccc1C (stereo not drawn) [etidocaine] | slightly greater delivery
CCN(CC)CCOC(=O)c1ccc(N)cc1 [procaine] | slightly greater delivery
